Reference: US20260035382A1, “COMPOUNDS AS SUMO ACTIVATING ENZYME INHIBITORS” (WIGEN BIOMEDICINE TECHNOLOGY (SHANGHAI) CO., LTD., priority 2022, published 2026)

These compounds were tested against SAE (Homo sapiens (Human), UniProt Q9UBT2) (assay: In vitro inhibitory activity assay against SAE (SUMO-2/3 immunofluorescence in HCT116 cells)). Details: 6 h incubation, class symbols, read-out: SUMO IF IC50.
Assay type: cell-based
Description: HCT116 cells were seeded into a 96-well black transparent bottom plate at about 20000/well with 90 μL per well. The cells were incubated at 37° C. overnight for 24 h. The test compounds were 10-fold diluted to give a final concentration, and 10 μL of the diluted compounds was added to each well of the cell culture plate. The mixture was incubated at 37° C. for 6 h. The cells were then washed gently, the culture medium was discarded, and the cells were washed once with 200 μL of 0.1% o PBST. 50 μL of 4% PFA was added to each well, and the cells were immobilized at room temperature for 20 min, and then washed with PBS 2-3 times. 50 μL of 0.2% o Triton X-100 was added to each well, and the cells were left to stand at room temperature for 15 min and washed with 0.1% PBST 3 times. 100 uL of 3% BSA (0.6 g BSA+20 mL PBS) was added to each well, and the mixture was blocked at 37° C. for 30 min. After the blocking was completed, the liquid was removed and a primary antibody (SUMO-2/3 (181H8) Rabbit mAb, 1:400 dilution) was prepared with […]. 30 μL of the diluted primary antibody was added to each well, and the mixture was incubated at 4° C. overnight. The cells were washed 3 times with 200 μL of 0.1% o PBST. A FITC secondary antibody (Fluorescein (FITC)-conjugated Affinipure Goat Anti-Rabbit IgG (H+L), 1:300 dilution) was further prepared with 1% o BSA, and 40 μL of the diluted secondary antibody was added to each well. The mixture was incubated at room temperature in the dark for 2 h, and then the cells were washed 4 times with 0.1% PBST. The fluorescence signal of the sample was detected and compared to the DMSO group, and the inhibition rate and IC50 were calculated.

Chain of SAE (Q9UBT2 whole entry): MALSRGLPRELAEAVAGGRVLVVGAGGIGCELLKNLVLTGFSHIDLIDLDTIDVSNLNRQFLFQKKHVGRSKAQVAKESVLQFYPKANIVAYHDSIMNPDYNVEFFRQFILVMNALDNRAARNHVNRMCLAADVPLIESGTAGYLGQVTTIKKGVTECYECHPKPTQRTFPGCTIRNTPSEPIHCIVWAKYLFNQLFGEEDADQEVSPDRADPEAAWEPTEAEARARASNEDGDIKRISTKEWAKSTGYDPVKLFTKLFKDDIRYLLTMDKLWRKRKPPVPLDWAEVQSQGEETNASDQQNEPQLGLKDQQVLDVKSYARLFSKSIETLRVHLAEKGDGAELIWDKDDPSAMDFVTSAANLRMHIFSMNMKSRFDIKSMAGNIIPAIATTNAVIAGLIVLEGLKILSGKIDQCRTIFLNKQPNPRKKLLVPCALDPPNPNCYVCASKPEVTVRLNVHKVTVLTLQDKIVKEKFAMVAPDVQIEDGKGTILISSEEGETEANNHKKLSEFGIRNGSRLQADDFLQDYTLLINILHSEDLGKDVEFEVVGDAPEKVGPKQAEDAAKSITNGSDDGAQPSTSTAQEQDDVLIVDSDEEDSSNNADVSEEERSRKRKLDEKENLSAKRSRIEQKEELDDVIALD
Chain of SAE (Q9UBE0 whole entry partner): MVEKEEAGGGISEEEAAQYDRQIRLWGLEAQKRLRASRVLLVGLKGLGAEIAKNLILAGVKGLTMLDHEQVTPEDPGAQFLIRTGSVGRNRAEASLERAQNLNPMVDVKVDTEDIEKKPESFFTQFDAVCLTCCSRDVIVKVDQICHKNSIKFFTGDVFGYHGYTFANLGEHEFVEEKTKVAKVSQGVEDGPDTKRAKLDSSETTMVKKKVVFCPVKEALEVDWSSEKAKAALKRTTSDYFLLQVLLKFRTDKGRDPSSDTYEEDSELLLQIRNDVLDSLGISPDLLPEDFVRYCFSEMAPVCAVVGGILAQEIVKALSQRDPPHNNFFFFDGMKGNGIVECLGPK

First: NS(=O)(=O)OC[C@H]1C[C@@H](Nc2ncncc2C(=O)c2cc3c(s2)CCCC32NCCc3ccccc32)C[C@@H]1O (stereo partly shown) [Compound 1]
Second: NS(=O)(=O)OC[C@H]1C[C@@H](Nc2ncncc2C(=O)c2cc3c(s2)CCC[C@@]32NCCc3ccccc32)C[C@@H]1O [Compound 2]
The IC50 of the first is lower: 50 to 200 nM for the first, over 200 nM for the second. The first is the more potent here.

First: NS(=O)(=O)OC[C@H]1C[C@@H](Nc2ncncc2C(=O)c2cc3c(s2)CCC[C@]32NCCc3ccccc32)C[C@@H]1O [Compound 3]
Second: NS(=O)(=O)OC[C@H]1C[C@@H](Nc2ncncc2C(=O)c2cc3c(s2)CCC32NCCc3ccccc32)C[C@@H]1O (stereo partly shown) [Compound 43]
The IC50 of the first is lower: at most 50 nM for the first, over 200 nM for the second. The first is the more potent here.

`NS(=O)(=O)OC[C@H]1C[C@@H](Nc2ncncc2C(=O)c2cc3c(s2)CCCC32NCCc3ccc(Cl)cc32)C[C@@H]1O` (stereo partly shown) [Compound 4] and `NS(=O)(=O)OC[C@H]1C[C@@H](Nc2ncncc2C(=O)c2cc3c(s2)CCC32NCCc3ccc(Cl)cc32)C[C@@H]1O` (stereo partly shown) [Compound 46] cannot be ordered by IC50: at most 50 nM for the first, 50 to 200 nM for the second.

`NS(=O)(=O)OC[C@H]1C[C@@H](Nc2ncncc2C(=O)c2cc3c(s2)CCCC32NCCc3ccc(F)cc32)C[C@@H]1O` (stereo partly shown) [Compound 7] and `NS(=O)(=O)OC[C@H]1C[C@@H](Nc2ncncc2C(=O)c2cc3c(s2)CCC32NCCc3ccc(F)cc32)C[C@@H]1O` (stereo partly shown) [Compound 49] fall in the same range of IC50: 50 to 200 nM for the first, 50 to 200 nM for the second.

Compared with `N#Cc1ccc2c(c1)C1(CCCc3sc(C(=O)c4cncnc4N[C@@H]4C[C@H](COS(N)(=O)=O)[C@@H](O)C4)cc31)NCC2` (stereo partly shown) [Compound 10], `N#Cc1ccc2c(c1)[C@]1(CCCc3sc(C(=O)c4cncnc4N[C@@H]4C[C@H](COS(N)(=O)=O)[C@@H](O)C4)cc31)NCC2` [Compound 11] is higher in IC50: 50 to 200 nM for the first, over 200 nM for the second.

`N#Cc1ccc2c(c1)[C@@]1(CCCc3sc(C(=O)c4cncnc4N[C@@H]4C[C@H](COS(N)(=O)=O)[C@@H](O)C4)cc31)NCC2` [Compound 12] and `N#Cc1ccc2c(c1)C1(CCc3sc(C(=O)c4cncnc4N[C@@H]4C[C@H](COS(N)(=O)=O)[C@@H](O)C4)cc31)NCC2` (stereo partly shown) [Compound 52] cannot be ordered by IC50: at most 50 nM for the first, 50 to 200 nM for the second.

`NS(=O)(=O)OC[C@H]1C[C@@H](Nc2ncncc2C(=O)c2cc3c(s2)COCC32NCCc3ccccc32)C[C@@H]1O` (stereo partly shown) [Compound 13] and `NS(=O)(=O)OC[C@H]1C[C@@H](Nc2ncncc2C(=O)c2cc3c(s2)COC[C@@]32NCCc3ccccc32)C[C@@H]1O` [Compound 14] cannot be ordered by IC50: over 200 nM for the first, over 200 nM for the second.

First: NS(=O)(=O)OC[C@H]1C[C@@H](Nc2ncncc2C(=O)c2cc3c(s2)COC[C@]32NCCc3ccccc32)C[C@@H]1O [Compound 15]
Second: NS(=O)(=O)OC[C@H]1C[C@@H](Nc2ncncc2C(=O)c2cc3c(s2)OCC32NCCc3ccccc32)C[C@@H]1O (stereo partly shown) [Compound 55]
The IC50 of the first is lower: 50 to 200 nM for the first, over 200 nM for the second.

`NS(=O)(=O)OC[C@H]1C[C@@H](Nc2ncncc2C(=O)c2cc3c(s2)COCC32NCCc3ccc(F)cc32)C[C@@H]1O` (stereo partly shown) [Compound 16] and `NS(=O)(=O)OC[C@H]1C[C@@H](Nc2ncncc2C(=O)c2cc3c(s2)COCC32NCCc3ccc(Cl)cc32)C[C@@H]1O` (stereo partly shown) [Compound 19] fall in the same range of IC50: 50 to 200 nM for the first, 50 to 200 nM for the second.

First: Cc1ccc2c(c1)C1(CCCc3sc(C(=O)c4cncnc4N[C@@H]4C[C@H](COS(N)(=O)=O)[C@@H](O)C4)cc31)NCC2 (stereo partly shown) [Compound 22]
Second: COc1ccc2c(c1)C1(CCCc3sc(C(=O)c4cncnc4N[C@@H]4C[C@H](COS(N)(=O)=O)[C@@H](O)C4)cc31)NCC2 (stereo partly shown) [Compound 24]
The IC50 of the first is lower: 50 to 200 nM for the first, over 200 nM for the second.

`NS(=O)(=O)OC[C@H]1C[C@@H](Nc2ncncc2C(=O)c2cc3c(s2)CCCC32NCCc3ccc(C4CC4)cc32)C[C@@H]1O` (stereo partly shown) [Compound 23] and `NS(=O)(=O)OC[C@H]1C[C@@H](Nc2ncncc2C(=O)c2cc3c(s2)CCCC32NCCc3ccc(C(F)(F)F)cc32)C[C@@H]1O` (stereo partly shown) [Compound 25] fall in the same range of IC50: 50 to 200 nM for the first, 50 to 200 nM for the second.

`NS(=O)(=O)OC[C@H]1C[C@@H](Nc2ncncc2C(=O)c2cc3c(s2)CCCC32NCCc3cc(F)c(F)cc32)C[C@@H]1O` (stereo partly shown) [Compound 26] and `NS(=O)(=O)OC[C@H]1C[C@@H](Nc2ncncc2C(=O)c2cc3c(s2)CCCC32NCCc3cc(F)c(Cl)cc32)C[C@@H]1O` (stereo partly shown) [Compound 27] cannot be ordered by IC50: 50 to 200 nM for the first, at most 50 nM for the second.

`NS(=O)(=O)OC[C@H]1C[C@@H](Nc2ncncc2C(=O)c2cc3c(s2)CCCC32NCCc3cc(Cl)c(Cl)cc32)C[C@@H]1O` (stereo partly shown) [Compound 28] and `Cc1cc2c(cc1Cl)C1(CCCc3sc(C(=O)c4cncnc4N[C@@H]4C[C@H](COS(N)(=O)=O)[C@@H](O)C4)cc31)NCC2` (stereo partly shown) [Compound 29] fall in the same range of IC50: 50 to 200 nM for the first, 50 to 200 nM for the second.

`N#Cc1cc2c(cc1Cl)C1(CCCc3sc(C(=O)c4cncnc4N[C@@H]4C[C@H](COS(N)(=O)=O)[C@@H](O)C4)cc31)NCC2` (stereo partly shown) [Compound 30] and `NS(=O)(=O)OC[C@H]1C[C@@H](Nc2ncncc2C(=O)c2cc3c(s2)CCCC32NCCc3cc(Cl)c(F)cc32)C[C@@H]1O` (stereo partly shown) [Compound 33] fall in the same range of IC50: 50 to 200 nM for the first, 50 to 200 nM for the second.

`COc1cc2c(cc1Cl)C1(CCCc3sc(C(=O)c4cncnc4N[C@@H]4C[C@H](COS(N)(=O)=O)[C@@H](O)C4)cc31)NCC2` (stereo partly shown) [Compound 31] and `NS(=O)(=O)OC[C@H]1C[C@@H](Nc2ncncc2C(=O)c2cc3c(s2)CCCC32NCCc3cc(Cl)ncc32)C[C@@H]1O` (stereo partly shown) [Compound 35] fall in the same range of IC50: 50 to 200 nM for the first, 50 to 200 nM for the second.

`NS(=O)(=O)OC[C@H]1C[C@@H](Nc2ncncc2C(=O)c2cc3c(s2)CCCC32NCCc3cc(F)c(Cl)c(F)c32)C[C@@H]1O` (stereo partly shown) [Compound 32] and `NS(=O)(=O)OC[C@H]1C[C@@H](Nc2ncncc2C(=O)c2cc3c(s2)CCCC32NCCc3ccncc32)C[C@@H]1O` (stereo partly shown) [Compound 34] fall in the same range of IC50: 50 to 200 nM for the first, 50 to 200 nM for the second.

`NS(=O)(=O)OC[C@H]1C[C@@H](Nc2ncncc2C(=O)c2cc3c(s2)C=CCC32NCCc3ccc(Cl)cc32)C[C@@H]1O` (stereo partly shown) [Compound 36] and `NS(=O)(=O)OC[C@H]1C[C@@H](Nc2ncncc2C(=O)c2cc3c(s2)CC=CC32NCCc3ccc(Cl)cc32)C[C@@H]1O` (stereo partly shown) [Compound 37] cannot be ordered by IC50: at most 50 nM for the first, at most 50 nM for the second.

First: NS(=O)(=O)OC[C@H]1C[C@@H](Nc2ncncc2C(=O)c2cc3c(s2)OCCC32NCCc3ccc(Cl)cc32)C[C@@H]1O (stereo partly shown) [Compound 38]
Second: NS(=O)(=O)OC[C@H]1C[C@@H](Nc2ncncc2C(=O)c2cc3c(s2)OC[C@@]32NCCc3ccccc32)C[C@@H]1O [Compound 56]
The IC50 of the first is lower: 50 to 200 nM for the first, over 200 nM for the second.

`NS(=O)(=O)OC[C@H]1C[C@@H](Nc2ncncc2C(=O)c2cc3c(s2)CCCC32NCC3(CC3)c3ccc(Cl)cc32)C[C@@H]1O` (stereo partly shown) [Compound 39] and `NS(=O)(=O)OC[C@H]1C[C@@H](Nc2ncncc2C(=O)c2cc3c(s2)CCCC32NC3(CC3)Cc3ccc(Cl)cc32)C[C@@H]1O` (stereo partly shown) [Compound 40] fall in the same range of IC50: 50 to 200 nM for the first, 50 to 200 nM for the second.

`NS(=O)(=O)OC[C@H]1C[C@@H](Nc2ncncc2C(=O)c2cc3c(s2)CCCC32NCC(=O)c3ccc(Cl)cc32)C[C@@H]1O` (stereo partly shown) [Compound 41] and `NS(=O)(=O)OC[C@H]1C[C@@H](Nc2ncncc2C(=O)c2cc3c(s2)CCCC32OCCc3ccc(Cl)cc32)C[C@@H]1O` (stereo partly shown) [Compound 42] cannot be ordered by IC50: 50 to 200 nM for the first, at most 50 nM for the second.

Compared with `N#Cc1ccc2c(c1)[C@]1(CCc3sc(C(=O)c4cncnc4N[C@@H]4C[C@H](COS(N)(=O)=O)[C@@H](O)C4)cc31)NCC2` [Compound 53], `N#Cc1ccc2c(c1)[C@@]1(CCc3sc(C(=O)c4cncnc4N[C@@H]4C[C@H](COS(N)(=O)=O)[C@@H](O)C4)cc31)NCC2` [Compound 54] is lower in IC50: over 200 nM for the first, 50 to 200 nM for the second. The second is the more potent here.

Same assay, conditions: 6 h incubation, numeric values, read-out: SUMO IF IC50

`NS(=O)(=O)OC[C@H]1C[C@@H](Nc2ncncc2C(=O)c2cc3c(s2)CCC[C@@]32NCCc3ccc(Cl)cc32)C[C@@H]1O` [Compound 5] and `NS(=O)(=O)OC[C@H]1C[C@@H](Nc2ncncc2C(=O)c2cc3c(s2)CC[C@@]32NCCc3ccc(Cl)cc32)C[C@@H]1O` [Compound 47] cannot be ordered by IC50: over 1000 nM for the first, over 1000 nM for the second.

`NS(=O)(=O)OC[C@H]1C[C@@H](Nc2ncncc2C(=O)c2cc3c(s2)CCC[C@@]32NCCc3ccc(F)cc32)C[C@@H]1O` [Compound 8] and `NS(=O)(=O)OC[C@H]1C[C@@H](Nc2ncncc2C(=O)c2cc3c(s2)CC[C@@]32NCCc3ccc(F)cc32)C[C@@H]1O` [Compound 50] cannot be ordered by IC50: over 1000 nM for the first, over 1000 nM for the second.

Going from `NS(=O)(=O)OC[C@H]1C[C@@H](Nc2ncncc2C(=O)c2cc3c(s2)COC[C@@]32NCCc3ccc(F)cc32)C[C@@H]1O` [Compound 17] to `NS(=O)(=O)OC[C@H]1C[C@@H](Nc2ncncc2C(=O)c2cc3c(s2)COC[C@]32NCCc3ccc(F)cc32)C[C@@H]1O` [Compound 18], the IC50 falls from over 1000 nM to 104 nM. The second is the more potent here.

First: NS(=O)(=O)OC[C@H]1C[C@@H](Nc2ncncc2C(=O)c2cc3c(s2)COC[C@@]32NCCc3ccc(Cl)cc32)C[C@@H]1O [Compound 20]
Second: NS(=O)(=O)OC[C@H]1C[C@@H](Nc2ncncc2C(=O)c2cc3c(s2)CC[C@]32NCCc3ccc(F)cc32)C[C@@H]1O [Compound 51]
The IC50 of the first is higher: over 1000 nM for the first, 50.7 nM for the second.

First: NS(=O)(=O)OC[C@H]1C[C@@H](Nc2ncncc2C(=O)c2cc3c(s2)CC[C@@]32NCCc3ccccc32)C[C@@H]1O [Compound 44]
Second: NS(=O)(=O)OC[C@H]1C[C@@H](Nc2ncncc2C(=O)c2cc3c(s2)CC[C@]32NCCc3ccccc32)C[C@@H]1O [Compound 45]
The IC50 of the first is higher: over 1000 nM for the first, 125 nM for the second.
